Experimental data taken from patent US10301286B2, “Piperazine derivative” (Astellas Pharma Inc., priority 2015, dated 2019).
Counter-ions that a name gives are not always drawn. Each block holds one compound with its values, some of them ahead of it.

Columns and labels:
human MC4 receptor = human MC4 receptor (Homo sapiens (Human), UniProt P32245); experiment: Human MC receptor activation, cAMP production in cells expressing human MC4 receptor; assay type: cell-based; conditions: FreeStyle 293-F cells transiently expressing human MC4 receptor, α-MSH maximum = 100%
Sequence of human MC4 receptor (P32245 whole entry): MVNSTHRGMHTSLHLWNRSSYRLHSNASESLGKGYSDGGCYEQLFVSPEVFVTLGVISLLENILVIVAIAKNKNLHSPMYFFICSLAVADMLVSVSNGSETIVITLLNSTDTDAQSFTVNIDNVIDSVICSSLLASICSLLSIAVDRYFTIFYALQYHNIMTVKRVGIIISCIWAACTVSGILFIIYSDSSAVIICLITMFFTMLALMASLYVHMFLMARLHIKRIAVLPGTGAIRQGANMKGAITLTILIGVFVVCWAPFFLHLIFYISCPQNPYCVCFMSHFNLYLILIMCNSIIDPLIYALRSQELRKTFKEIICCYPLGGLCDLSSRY
Text: (1) Construction of Human MC Receptor-Expressing Vector
A human MC4 receptor gene (GenBank Accession No.: NM_005912.2), a human MC1 receptor gene (GenBank Accession No.: NM_002386.3), or a human MC3 receptor gene (GenBank Accession No.: NM_019888.3) was introduced into an expression vector pcDNA™ 3.1/V5-His TOPO (registered trademark) (Thermo Fisher Scientific Inc.).
(2) Construction of Cells Transiently Expressing Human MC Receptor
(§1) An expression vector for a human MC4, MC1, or MC3 receptor was introduced into FreeStyle™ 293-F cell (Thermo Fisher Scientific Inc., product number: R790-07). For the introduction, electroporation was employed. That is, 1×10^7 FreeStyle™ 293-F cell were suspended in 80 μL of an electroporation buffer (Thermo Fisher Scientific Inc., product number: B201-100), and 20 μg of the expression vector was added thereto. The resultant was put into a cuvette (OC-100 Processing Assembly, MaxCyte, Inc.) and electroporated with MaxCyte SIX (registered trademark) (MaxCyte, Inc.). The cells were cultured over one day, suspended in a Cell Banker (registered trademark) 1 (JUJI FIELD Inc.), product number: BLC-1), and stored frozen until their use.
(§2) (3) Measurement of Amount of cAMP Produced
Measurement was carried out by using a LANCE (registered trademark) Ultra cAMP Kit (PerkinElmer, Inc.) in accordance with the attached instructions. That is, after dissolution in DMSO, the test compound (a final concentration of 1 pM to 30 μM) diluted with an assay buffer (Hank's balanced salt solution, 5 mM 4-(2-hydroxyethyl)-1-piperazineethanesulfonic acid (HEPES), 0.5 mM 3-isobutyl-1-methylxanthine (IBMX), 0.1% bovine serum albumin, pH 7.4), or α-MSH (Bachem Inc., a final concentration of 1 pM to 30 μM) was added to OptiPlate-384 (PerkinElmer, Inc.). Furthermore, a suspension of cells transiently expressing the human MC4, MC1, or MC3 receptor prepared by using the assay buffer was added thereto at 1,000 cells/well, followed by being left to stand at room temperature for about 1 hour. Thereafter, an Eu-cAMP tracer solution and an ULight™-anti-cAMP solution were added thereto, followed by being left to stand at room temperature for about 1 hour. The amount of cAMP was calculated using EnVision (registered trademark) (PerkinElmer Inc.).
(§3) For the agonistic activity, an efficacy (EC50 (μM)) was calculated by a non-linear regression method with a Sigmoid-Emax model, by defining the maximum reaction with α-MSH as 100% and the reaction with the vehicle alone as 0%, respectively.

rat MC4 receptor = rat MC4 receptor (Rattus norvegicus (Rat), UniProt P70596); experiment: Rat MC4 receptor activation, cAMP production in cells expressing rat MC4 receptor; assay type: cell-based; conditions: FreeStyle 293-F cells transiently expressing rat MC4 receptor, α-MSH maximum = 100%
Sequence of rat MC4 receptor (P70596 whole entry): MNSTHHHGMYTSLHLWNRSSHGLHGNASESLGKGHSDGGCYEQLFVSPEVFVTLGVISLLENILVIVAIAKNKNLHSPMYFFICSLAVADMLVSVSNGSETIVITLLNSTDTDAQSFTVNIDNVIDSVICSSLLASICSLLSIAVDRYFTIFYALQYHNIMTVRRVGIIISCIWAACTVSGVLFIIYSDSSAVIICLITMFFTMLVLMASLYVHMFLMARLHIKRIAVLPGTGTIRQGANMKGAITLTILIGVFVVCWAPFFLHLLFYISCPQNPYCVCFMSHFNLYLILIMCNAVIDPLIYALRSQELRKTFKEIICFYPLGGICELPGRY
Text: (1) Construction of Rat MC4 Receptor-Expressing Vector
A rat MC4 receptor gene (GenBank Accession No.: NM_013099.2) was introduced into an expression vector pcDNA™ 3.1/V5-His TOPO (registered trademark) (Thermo Fisher Scientific Inc.).
(2) Construction of Cells Transiently Expressing Rat MC4 Receptor
as §1, with “rat MC4” for “human MC4, MC1, or MC3”, “Inc.).” for “Inc., product number: R790-07).”, “Inc.),” for “Inc., product number: B201-100),”, “STX” for “SIX”, “Inc.),” for “Inc.), product number: BLC-1),”, “until” for “until their”
as §2
Measurement was carried out in accordance with the attached instructions, using a LANCE (registered trademark) Ultra cAMP Kit (PerkinElmer, Inc.). That is, after dissolution in DMSO, the test compound (a final concentration of 1 pM to 30 μM) diluted with an assay buffer (Hank's balanced salt solution, 5 mM HEPES, 0.5 mM IBMX, 0.1% bovine serum albumin, pH 7.4), or α-MSH (Bachem Inc., a final concentration of 1 pM to 30 μM) was added to OptiPlate-384 (PerkinElmer, Inc.). Furthermore, a suspension of cells transiently expressing the rat MC4 receptor, that had been prepared using the assay buffer, was added thereto at 1,000 cells/well, followed by being left to stand at room temperature for about 1 hour. Thereafter, an Eu-cAMP tracer solution and an ULight™-anti-cAMP solution were added thereto, followed by being left to stand at room temperature for about 1 hour. The amount of cAMP was calculated using EnVision (registered trademark) (PerkinElmer Inc.).
as §3

[1] = system: Male Sprague Dawley (SD) rats; experiment: Action on drug-induced voiding dysfunction model rat; assay type: in vivo; conditions: po, administered into the stomach, atropine sulfate + midodrine hydrochloride model, inhibition of decrease in voiding efficiency or increase of residual urine, P<0.05, read-out: Minimum effective dose
Text: Male Sprague Dawley (SD) rats (Japan SLC, Inc.) were anesthetized with isoflurane and a cannula was placed in bladder, the stomach, and the jugular vein. Then, the rats were awakened in a Ballman cage (Natsume Seisakusho Co., Ltd.). After a post-operative stabilization period, physiological saline was continuously infused into the bladder by an infusion pump (Terumo Corporation, product number: TE-331S) to induce voiding. Infusion of the physiological saline was stopped at the time of voiding, and the amount of the voided urine was measured using an electronic top-loading balance placed under the Ballman cage. After completion of voiding, the residual urine was collected by gravity through the cannula placed in the bladder, and weighed, and the weight was defined as the amount of the residual urine. Further, the intravesical pressure was measured by a pressure transducer (Nihon Kohden Corporation, product numbers: TP-400, TDX-100) through the bladder cannula. The test compound or the vehicle was administered into the stomach, and atropine sulfate (Sigma-Aldrich, Inc., 0.01 mg/kg), which is an anticholinergic drug, and midodrine hydrochloride (Sigma-Aldrich, Inc., 0.3 mg/kg), which is an α1 adrenergic receptor stimulant, were administered intravenously to induce voiding dysfunctions. The voiding efficiency (=[voided amount/(voided amount+amount of residual urine)]×100) and the amount of the residual urine before and after administration of the test compound or the vehicle were measured, and the amount changed was evaluated. The value with vehicle administration and the value with the test compound administration were compared in a Dunnett's multiple comparison test with a statistically significant difference (P<0.05), and the minimum dose at which the inhibitory effect on a decrease in voiding efficiency or an increase of the amount of residual urine had been observed was defined as a minimal effective dose (3 to 12 animals per group).

SMILES: Cc1cc(C)c(C[C@@H](C(=O)O)N2CCN(C(=O)[C@@H]3CN(C4CCOCC4)C[C@H]3c3ccc(Cl)cc3F)[C@@H](C)C2)c(F)c1 [Example 88]
EC50 (human MC4 receptor): 0.012 µM
EC50 (rat MC4 receptor): 0.011 µM
minimal effective dose [1]: 0.1 mg/kg

SMILES: Cc1ccc(C[C@@H](C(=O)O)N2CCN(C(=O)[C@@H]3CN(C(C)(C)C)C[C@H]3c3ccc(Cl)cc3F)[C@@H](C)C2)cc1 [Example 11]
EC50 (human MC4 receptor): 0.017 µM
EC50 (rat MC4 receptor): 0.021 µM
minimal effective dose [1]: 0.3 mg/kg

SMILES: C[C@H]1CN([C@@H](Cc2ccc3c(c2)CCC3)C(=O)O)CCN1C(=O)[C@@H]1CN(C(C)(C)C)C[C@H]1c1ccc(F)cc1F [Example 5, (2S)-2-[(3S)-4-{[(3S,4R)-1-tert-butyl-4-(2,4-difluorophenyl)pyrrolidin-3-yl]carbonyl}-3-methylpiperazin-1-yl]-3-(2,3-dihydro-1H-inden-5-yl)propanoic acid dihydrochloride]
EC50 (human MC4 receptor): 0.025 µM
EC50 (rat MC4 receptor): 0.026 µM
minimal effective dose [1]: 0.3 mg/kg

SMILES: Cc1ccc(C[C@@H](C(=O)O)N2CCN(C(=O)[C@@H]3CN(C4CCOCC4)C[C@H]3c3ccc(Cl)cc3F)[C@@H](C)C2)c(F)c1 [Example 87, (2S)-2-[(3S)-4-{[(3S,4R)-4-(4-chloro-2-fluorophenyl)-1-(tetrahydro-2H-pyran-4-yl)pyrrolidin-3-yl]carbonyl}-3-methylpiperazin-1-yl]-3-(2-fluoro-4-methylphenyl)propanoic acid dihydrochloride]
EC50 (human MC4 receptor): 0.011 µM
EC50 (rat MC4 receptor): 0.021 µM
minimal effective dose [1]: 0.1 mg/kg

Stronger by EC50 (human MC4 receptor), values ahead:

EC50 (human MC4 receptor): 0.00096 µM
EC50 (rat MC4 receptor): 0.0017 µM
SMILES: Cc1cc(F)c(C[C@@H](C(=O)O)N2CCN(C(=O)[C@@H]3CN(C(C)(C)C)C[C@H]3c3ccc(Cl)cc3F)[C@@H](C)C2)c(F)c1 [Example 76]
minimal effective dose [1]: 0.03 mg/kg

EC50 (human MC4 receptor): 0.0015 µM
EC50 (rat MC4 receptor): 0.0013 µM
SMILES: Cc1ccc(C[C@@H](C(=O)O)N2CCN(C(=O)[C@@H]3CN(C(C)(C)C)C[C@H]3c3ccc(Cl)cc3F)[C@@H](C)C2)c(F)c1 [Example 4, (2S)-2-[(3S)-4-{[(3S,4R)-1-tert-butyl-4-(4-chloro-2-fluorophenyl)pyrrolidin-3-yl]carbonyl}-3-methylpiperazin-1-yl]-3-(2-fluoro-4-methylphenyl)propanoic acid dihydrochloride]
minimal effective dose [1]: 0.03 mg/kg

EC50 (human MC4 receptor): 0.003 µM
EC50 (rat MC4 receptor): 0.0031 µM
SMILES: Cc1cc(C)c(C[C@@H](C(=O)O)N2CCN(C(=O)[C@@H]3CN(C(C)(C)C)C[C@H]3c3ccc(Cl)cc3F)[C@@H](C)C2)c(C)c1 [Example 89]
minimal effective dose [1]: 0.1 mg/kg

EC50 (human MC4 receptor): 0.0032 µM
EC50 (rat MC4 receptor): 0.0026 µM
SMILES: CCC[C@H]1CN([C@@H](Cc2ccc3ccccc3c2)C(=O)O)CCN1C(=O)[C@@H]1CN(C(C)(C)C)C[C@H]1c1ccc(F)cc1F [Example 9]
minimal effective dose [1]: 3 mg/kg
